Source: US20250296971A1, “GASTRIC INHIBITORY PEPTIDE RECEPTOR LIGANDS” (priority 2021, published 2025)
Like-named read-outs stand apart in the source and are kept apart here. *1 amine or outer side, *2 acyl side, *3 side chain or, on linkers, in order; H or OH if unused. Where a SMILES comes first, the peptide text is derived from it. Bridges are numbered along the chain shown (N, C = ends). Side-chain parts run from the residue outwards. [ ]: non-standard residue; d: D form. The star is where a group is joined. X11 = O=C(CN1CCN2CCN3CCN(CC1)CC(=O)[O][In]([O]C(=O)C2)[O]C(=O)C3)NCCCOCCOCCOCCCN*; X3 = O=C(O)CN1CCN(CC(=O)O)CCN(CC(=O)NCCCOCCOCCOCCCN*)CCN(CC(=O)O)CC1; NH(1-deoxy-D-glucityl) = OC[C@@H](O)[C@@H](O)[C@H](O)[C@@H](O)CN*; DOTA = O=C(O)CN1CCN(CC(=O)O)CCN(CC(=O)*)CCN(CC(=O)O)CC1; Trp(5-Cl) = N[C@@H](Cc1c[nH]c2ccc(Cl)cc12)C(=O)O; Pyridine(2,6-diCH2) = c1cc(C[*:1])nc(C[*:2])c1; Phe(3-Cl) = N[C@@H](Cc1cccc(Cl)c1)C(=O)O; Pro(4R-NH2) = N[C@H]1CN[C@H](C(=O)O)C1; Pro(3S-OH) = O=C(O)[C@H]1NCC[C@@H]1O; mXylylene = c1cc(C[*:1])cc(C[*:2])c1; Glutaryl = O=C(CCCC(=O)[*:2])[*:1]; X6 = c1cc(CSCCN[*:2])nc(C[*:1])c1; X7 = c1cc(CSCCN[*:2])cc(C[*:1])c1; Hyp = O=C(O)[C@@H]1C[C@@H](O)CN1; X1 = O=C(CN1CCC(N[*:1])CC1)[*:2]; Suc = O=C(CCC(=O)[*:2])[*:1]; Api = NC1(C(=O)O)CCNCC1; Thp = NC1(C(=O)O)CCOCC1; Aib = CC(C)(N)C(=O)O

Target: T1, GIPR (CHO-K1-hGIPR cells) (Homo sapiens, UniProt P48546)
T1 construct: host or cells: CHO-K1
T1 sequence (P48546 22-466): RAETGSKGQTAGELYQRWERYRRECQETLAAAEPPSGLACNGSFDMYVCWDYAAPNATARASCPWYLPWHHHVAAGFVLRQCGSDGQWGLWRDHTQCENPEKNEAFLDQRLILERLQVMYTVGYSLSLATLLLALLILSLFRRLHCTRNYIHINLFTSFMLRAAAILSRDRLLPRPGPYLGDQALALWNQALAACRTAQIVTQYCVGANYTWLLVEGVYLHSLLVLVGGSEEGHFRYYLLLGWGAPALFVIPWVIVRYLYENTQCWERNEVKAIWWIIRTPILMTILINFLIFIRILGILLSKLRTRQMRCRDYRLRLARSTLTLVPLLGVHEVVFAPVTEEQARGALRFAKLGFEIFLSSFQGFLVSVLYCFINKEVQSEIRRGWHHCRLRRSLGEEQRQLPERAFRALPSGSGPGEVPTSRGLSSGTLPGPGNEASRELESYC
Experiment: FACS binding assay
Conditions: read-out: pIC50 Category (converted)
In short: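 Read-out: flow cytometric median fluorescence intensity, APC/Cy5 channel, plotted vs peptide conc.; 4PL fit → EC50/pEC50 or IC50/pIC50. Cells: CHO-K1-hGIPR, Accutase-detached, 500.000/mL in PBS + 1% FCS. Detection: APC-streptavidin 1 μg/mL, 30 min, on ice.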

[1] = competition with 20 nM GIP-057, 4° C., 1 hour

Structure (SMILES) | IC50 (competition with 20 nM GIP-057, 4° C. for 1 hour) | IC50 [1]
CC[C@H](C)[C@@H]1NC(=O)[C@H](CC(C)C)NC(=O)C(C)(C)NC(=O)[C@@H](NC(=O)[C@H](CC(C)C)NC(=O)[C@H](CCC(=O)O)NC(=O)[C@@H]2CCCN2C(=O)[C@H](Cc2c[nH]c3ccccc23)NC(=O)[C@H](Cc2c[nH]c3ccccc23)NC(=O)CCC(=O)O)CSCc2cccc(c2)CSC[C@@H](C(N)=O)NC1=O [GIP-259, HO-Succinyl-Trp-Trp-Pro-Glu-Leu-[Cys(3MeBn)-Aib-Leu-Ile-Cys]-NH2] (Suc-WWPELC[Aib]LIC-NH2; linker 6-10 via mXylylene) | 10 to 79.4 nM | –
CC[C@H](C)[C@@H]1NC(=O)[C@H](CC(C)C)NC(=O)C(C)(C)NC(=O)[C@@H](NC(=O)[C@@H](CC(C)C)NC(=O)[C@H](CCC(=O)O)NC(=O)[C@@H]2[C@@H](O)CCN2C(=O)[C@H](Cc2c[nH]c3ccc(Cl)cc23)NC(=O)[C@H](Cc2c[nH]c3ccccc23)NC(=O)[C@H](CC(=O)O)NC(=O)CCC(=O)NCCCOCCOCCOCCCNC(=O)CN2CCN(CC(=O)O)CCN(CC(=O)O)CCN(CC(=O)O)CC2)CSCc2cccc(c2)CSCCNC1=O [GIP-102, DOTA-Ttds-Asp-Trp-5Clw-H3p-Glu-leu-[Cys(3MeBn)-Aib-Leu-Ile-AET]] ({X3-Suc}-DW[Trp(5-Cl)][Pro(3S-OH)]E[dL]C[Aib]LI; linker 7-C via X7) | – | < 10 nM
CC[C@H](C)[C@@H]1NC(=O)[C@H](CC(C)C)NC(=O)C2(CCOCC2)NC(=O)[C@@H](NC(=O)[C@@H](CC(C)C)NC(=O)[C@H](CCC(=O)O)NC(=O)[C@@H]2C[C@@H](O)CN2C(=O)[C@H](Cc2c[nH]c3ccc(Cl)cc23)NC(=O)[C@H](Cc2cccc(Cl)c2)NC(=O)[C@H](CC(=O)O)NC(C)=O)CSCc2cccc(n2)CSC[C@@H](C(N)=O)NC1=O [GIP-209, Ac-Asp-Mcf-5Clw-Hyp-Glu-leu-[Cys(2Lut)-Thp-Leu-Ile-Cys]-NH2] (Ac-D[Phe(3-Cl)][Trp(5-Cl)][Hyp]E[dL]C[Thp]LIC-NH2; linker 7-11 via Pyridine(2,6-diCH2)) | – | < 10 nM
CC[C@H](C)[C@@H]1NC(=O)[C@H](CC(C)C)NC(=O)C(C)(C)NC(=O)[C@@H](NC(=O)[C@@H](CC(C)C)NC(=O)[C@H](CCC(=O)O)NC(=O)[C@@H]2CCCN2C(=O)[C@H](Cc2c[nH]c3ccc(Cl)cc23)NC(=O)[C@H](Cc2c[nH]c3ccccc23)NC(=O)[C@H](CC(=O)O)NC(=O)CCC(=O)NCCCOCCOCCOCCCNC(=O)CN2CCN3CCN4CCN(CC2)CC(=O)[O][In]([O]C(=O)C3)[O]C(=O)C4)CSCc2cccc(n2)CSCCNC1=O [GIP-154, InDOTA-Ttds-Asp-Trp-5Clw-Pro-Glu-leu-[Cys(2Lut)-Aib-Leu-Ile-AET]] ({X11-Suc}-DW[Trp(5-Cl)]PE[dL]C[Aib]LI; linker 7-C via X6) | – | < 10 nM

Results, then the compound that gave them:

IC50 (competition with 20 nM GIP-057, 4° C. for 1 hour) | IC50 [1] | Structure (SMILES)
– | < 10 nM | CC[C@H](C)[C@@H]1NC(=O)[C@H](CC(C)C)NC(=O)C2(CCN(C(=O)CCCC(=O)NC[C@H](O)[C@@H](O)[C@H](O)[C@H](O)CO)CC2)NC(=O)[C@@H](NC(=O)[C@@H](CC(C)C)NC(=O)[C@H](CCC(=O)O)NC(=O)[C@@H]2C[C@@H](N)CN2C(=O)[C@H](Cc2c[nH]c3ccc(Cl)cc23)NC(=O)[C@H](Cc2c[nH]c3ccccc23)NC(=O)[C@H](CC(=O)O)NC(=O)CN2CCC(NC(=O)CN3CCN(CC(=O)O)CCN(CC(=O)O)CCN(CC(=O)O)CC3)CC2)CSCc2cccc(n2)CSC[C@@H](C(=O)NC2CCN(CC(=O)N[C@H](CCC(=O)NC[C@H](O)[C@@H](O)[C@H](O)[C@H](O)CO)C(N)=O)CC2)NC1=O [GIP-012, DOTA-APAc-Asp-Trp-5Clw-Hyp-Glu-leu-[Cys(2Lut)-Apc(AGLU-Glutar)-Leu-Ile-Cys]-APAc-glu(AGLU)-NH2] ({DOTA}-[X1]DW[Trp(5-Cl)][Pro(4R-NH2)]E[dL]C[Api]([Glutaryl-NH(1-deoxy-D-glucityl)])LIC[X1][dE](NH(1-deoxy-D-glucityl))-NH2; linker 8-12 via Pyridine(2,6-diCH2))
– | < 10 nM | CC[C@H](C)[C@@H]1NC(=O)[C@H](CC(C)C)NC(=O)C2(CCN(C(=O)CCCC(=O)NC[C@H](O)[C@@H](O)[C@H](O)[C@H](O)CO)CC2)NC(=O)[C@@H](NC(=O)[C@@H](CC(C)C)NC(=O)[C@H](CCC(=O)O)NC(=O)[C@@H]2C[C@@H](N)CN2C(=O)[C@H](Cc2c[nH]c3ccc(Cl)cc23)NC(=O)[C@H](Cc2c[nH]c3ccccc23)NC(=O)[C@H](CC(=O)O)NC(=O)[C@@H](CCC(=O)NC[C@H](O)[C@@H](O)[C@H](O)[C@H](O)CO)NC(=O)CN2CCN(CC(=O)O)CCN(CC(=O)O)CCN(CC(=O)O)CC2)CSCc2cccc(n2)CSC[C@@H](C(=O)NC2CCN(CC(=O)N[C@H](CCC(=O)NC[C@H](O)[C@@H](O)[C@H](O)[C@H](O)CO)C(N)=O)CC2)NC1=O [GIP-045, DOTA-glu(AGLU)-Asp-Trp-5Clw-Tap-Glu-leu-[Cys(2Lut)-Apc(AGLU-Glutar)-Leu-Ile-Cys]-APAc-glu(AGLU)-NH2] ({DOTA}-[dE](NH(1-deoxy-D-glucityl))DW[Trp(5-Cl)][Pro(4R-NH2)]E[dL]C[Api]([Glutaryl-NH(1-deoxy-D-glucityl)])LIC[X1][dE](NH(1-deoxy-D-glucityl))-NH2; linker 8-12 via Pyridine(2,6-diCH2))
